Test results from patent US11970497B2, “Tricyclic AKR1C3 dependent KARS inhibitors” (Novartis AG, priority 2019, dated 2024).
Where two headings read alike, the source gives them in different places.

Legend:
Human KARS = target: T1, Human KARS (Homo sapiens, UniProt Q15046); assay: KARS AMP Transcreener FP assay; format: biochemical; conditions: 50 nM human KARS, 20 μM ATP, 50 μM L-Lysine, 1 μM tRNA, 2 h at RT; read-out: Human KARS Transcreener AMP assay Qualified absolute AC50
T1 construct: Human KARS protein (residues 70-584) was expressed and purified; made in house
T1 sequence (Q15046 70-584): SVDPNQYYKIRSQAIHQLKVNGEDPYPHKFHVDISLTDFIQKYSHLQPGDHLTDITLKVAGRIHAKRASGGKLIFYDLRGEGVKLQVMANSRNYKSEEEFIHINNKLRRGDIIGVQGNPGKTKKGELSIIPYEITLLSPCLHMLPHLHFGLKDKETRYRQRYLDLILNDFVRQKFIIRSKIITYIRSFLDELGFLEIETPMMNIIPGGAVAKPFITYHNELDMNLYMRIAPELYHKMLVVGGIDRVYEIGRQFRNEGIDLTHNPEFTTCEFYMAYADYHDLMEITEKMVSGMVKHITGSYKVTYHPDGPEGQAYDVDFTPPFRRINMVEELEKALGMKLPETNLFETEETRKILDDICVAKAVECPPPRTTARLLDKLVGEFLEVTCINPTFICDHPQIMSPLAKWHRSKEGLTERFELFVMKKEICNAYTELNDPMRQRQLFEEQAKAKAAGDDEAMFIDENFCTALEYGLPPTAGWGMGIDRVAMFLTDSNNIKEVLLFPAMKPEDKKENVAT
Text: KARS AMP Transcreener FP Assay to Measure Inhibition of KARS Enzymatic Activity
Lysine-tRNA synthetase (KARS) is an enzyme that catalyzes the reaction of ATP, L-lysine, and tRNA(Lys) to form AMP, diphosphate, and L-lysyl-tRNA(Lys).
The Transceener® AMP/GMP (BellBrook Labs, Madison, WI, USA) is a far red, competitive fluorescence polarization (FP) immunoassay based on the detection of AMP, which is one of the products of aminoacylation of tRNA. In this assay, a fluorescently labeled AMP (AMP Alexa Fluor 633) is used as the tracer that can be recognized by a specific antibody. In the absence of AMP, all the tracer molecules are bound to the antibodies leading to large polarization. The AMP product generated by the enzyme reaction will compete with the tracer for binding to the antibody which leads to a decrease in the polarization. As such, the enzyme activity is inversely proportional to FP values.
Human KARS protein (residues 70-584) was expressed and purified using a similar protocol to what is described in literature (Crystal structure of tetrameric form of human lysyl-tRNA synthetase: Implications for multisynthetase complex formation Guo, M., Ignatov, M., Musier-Forsyth, K., Schimmel, P., Yang, X. L. (2008) Proc. Natl. Acad. Sci. Usa 105: 2331-2336).
The KARS enzyme assay was performed in a final volume of 10 μL per well of Corning Costar 384 well plate, flat bottom, black non-treated plate. The final assay concentration was 20 mM HEPES pH 7.5, 1 mM DTT, 50 nM human KARS, 20 μM ATP, 50 μM L-Lysine, 1 μM tRNA and 8 mM MgCl2. Compounds were serial diluted 1:3 in DMSO in a master plate to generate a 10 concentration points dose response with maximum concentration of 10 mM. 50 nL from compound master plate were spotted in each well of a 384 black plate (Corning 3573), and 5 μL of enzyme mixture containing 100 nM KARS diluted in assay buffer (20 mM HEPES pH 7.5 and 1 mM OTT) were added. The reaction was started by adding 5 μL of the substrate mixture containing 40 μM ATP (final 20 μM ATP), 100 μM L-Lysine (final 50 μM), 2 μM tRNA (final 1 μM), 16 mM MgCl2 (final 8 mM MgCl2) diluted in assay buffer (20 mM HEPES pH 7.5 and 1 mM OTT). The mixtures were mixed and incubated for 2 h at RT before the termination of the reaction.
Transcreener® stop and detection buffers were prepared (1× stop buffer [final: 0.5×], 2 nM Tracer [final: 1 nM] and 5 μg/ml anti-AMP antibody [final: 2.5 μg/ml] in deionized water) and 10 μL of the stop and detection mix were added to the reaction wells, mixed for a minute and centrifuged at 1000 rpm for 10 seconds. The plates were read after incubating at RT for 30-60 min using Infinite® M1000 with the following settings: Excitation wavelength: 635 nm; Emission wavelength: 680 nm. FP values of DMSO controls were used to normalize the data and calculate IC50s of compounds using the Helios Software suite.

[1] = tested on: H460 (NRF2 pathway mutant cell line with high AKR1C3 expression); assay: In vitro cell proliferation assay (CellTiter-Glo), H460; format: cell-based; conditions: Homo sapiens, NCI-H460, 72 h, read-out: H460 Qualified absolute AC50
In short: (§1)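 Cells seeded day 1 (H460 800/well, Hara 2000/well) in RPMI-1640 with 10% FBS; compounds added day 2 as 8-point 1:5 dilutions from 10 μM top. After 3 days at 37 °C, viability read by CellTiter-Glo luminescence, normalized to DMSO and MG132 (30 μM) controls to derive percentage activity and AC50.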

[2] = tested on: Hara (NRF2 pathway wild type cell line with low AKR1C3 expression); assay: In vitro cell proliferation assay (CellTiter-Glo), Hara; format: cell-based; conditions: 72 h, read-out: HARA Qualified absolute AC50
In short: as §1

[3] = H460 cells, 3 days, CellTiter-Glo, top concentration 10 μM
[4] = Hara cells, 3 days, CellTiter-Glo, top concentration 10 μM

| SMILES | AC50 (Human KARS) [nM] | AC50 [1, 3] [nM] | AC50 [2, 4] [nM] | AC50 [1] [nM] | AC50 [2] [nM] |
| --- | --- | --- | --- | --- | --- |
| O=C(NC1CC(O)C1)c1cc(CNC(=O)N2CCC3(CC2)CC(O)c2cc(F)ccc2N3)ccc1F (racemic) [Example 162, 6′-fluoro-N-(4-fluoro-3-((3-hydroxycyclobutyl)carbamoyl)benzyl)-4′-hydroxy-3′,4′-dihydro-1′H-spiro[piperidine-4,2′-quinoline]-1-carboxamide] | 73.7 | 47 |  |  |  |
| O=C1CC2(CCN(C(=O)NCc3cccc(-c4ncc[nH]4)c3)CC2)Nc2ccc(F)cc21 [Example 130, N-(3-(1H-imidazol-2-yl)benzyl)-6′-fluoro-4′-oxo-3′,4′-dihydro-1′H-spiro[piperidine-4,2′-quinoline]-1-carboxamide] |  | 1530 | > 10000 |  |  |
| CS(=O)(=O)Nc1cc(CNC(=O)N2CCC3(CC2)CC(=O)c2cc(F)ccc2N3)ccc1F [Example 131, 6′-fluoro-N-(4-fluoro-3-(methylsulfonamido)benzyl)-4′-oxo-3′,4′-dihydro-1′H-spiro[piperidine-4,2′-quinoline]-1-carboxamide] |  | 1620 | > 10000 |  |  |
| O=C1CC2(CCN(C(=O)NCc3ccc(F)c(CO)c3)CC2)Nc2c(F)cc(F)cc21 [Example 132, 6′,8′-difluoro-N-(4-fluoro-3-(hydroxymethyl)benzyl)-4′-oxo-3′,4′-dihydro-1′H-spiro[piperidine-4,2′-quinoline]-1-carboxamide] |  | 1720 | > 10000 |  |  |
| O=C1CC2(CCN(C(=O)NCc3ccc(F)c(NS(=O)(=O)C4CC4)c3)CC2)Nc2ccc(F)cc21 [Example 133, N-(3-(cyclopropanesulfonamido)-4-fluorobenzyl)-6′-fluoro-4′-oxo-3′,4′-dihydro-1′H-spiro[piperidine-4,2′-quinoline]-1-carboxamide] |  | 1770 | > 10000 |  |  |
| Cc1noc(CNC(=O)N2CCC3(CC2)CC(=O)c2cc(F)ccc2N3)n1 [Example 134, 6′-fluoro-N-((3-methyl-1,2,4-oxadiazol-5-yl)methyl)-4′-oxo-3′,4′-dihydro-1′H-spiro[piperidine-4,2′-quinoline]-1-carboxamide] |  | 1780 | 94 |  |  |
| CC(O)c1cc(CNC(=O)N2CCC3(CC2)CC(=O)c2cc(F)ccc2N3)ccc1F (stereo not drawn) [Example 135, 6′-fluoro-N-(4-fluoro-3-(1-hydroxyethyl)benzyl)-4′-oxo-3′,4′-dihydro-1′H-spiro[piperidine-4,2′-quinoline]-1-carboxamide] |  | 1860 | > 10000 |  |  |
| Nc1ccc(CNC(=O)N2CCC3(CC2)CC(=O)c2cc(F)ccc2N3)cn1 [Example 136, N-((6-aminopyridin-3-yl)methyl)-6′-fluoro-4′-oxo-3′,4′-dihydro-1′H-spiro[piperidine-4,2′-quinoline]-1-carboxamide] |  | 1990 | > 10000 |  |  |
| Nc1cc(F)ccc1CNC(=O)N1CCC2(CC1)CC(=O)c1cc(F)ccc1N2 [Example 137, N-(2-amino-4-fluorobenzyl)-6′-fluoro-4′-oxo-3′,4′-dihydro-1′H-spiro[piperidine-4,2′-quinoline]-1-carboxamide] |  | 2030 | > 10000 |  |  |
| O=C1CC2(CCN(C(=O)NCc3cocn3)CC2)Nc2ccc(F)cc21 [Example 138, 6′-fluoro-N-(oxazol-4-ylmethyl)-4′-oxo-3′,4′-dihydro-1′H-spiro[piperidine4,2′-quinoline]-1-carboxamide] |  | 2110 | > 10000 |  |  |
| CN1c2ccc(F)cc2C(=O)CC12CCN(C(=O)NCc1ccc(F)c(C(C)(C)O)c1)CC2 [Example 139, 6′-fluoro-N-(4-fluoro-3-(2-hydroxypropan-2-yl)benzyl)-1′-methyl-4′-oxo-3′,4′-dihydro-1′H-spiro[piperidine-4,2′-quinoline]-1-carboxamide] |  | 2300 | 8830 |  |  |
| CN1c2ccc(F)cc2C(=O)CC12CCN(C(=O)NCc1ccc(F)c(NCC(C)(C)C(=O)O)c1)CC2 [Example 140, 3-((2-fluoro-5-((6′-fluoro-1′-methyl-4′-oxo-3′,4′-dihydro-1′H-spiro[piperidine-4,2′-quinoline]-1-carboxamido)methyl)phenyl)amino)-2,2-dimethylpropanoic acid] |  |  |  | 2340 | > 10000 |
| O=C1CC2(CCN(C(=O)NCc3cccc4nonc34)CC2)Nc2ccc(F)cc21 [Example 141, N-(benzo[c][1,2,5]oxadiazol-4-ylmethyl)-6′-fluoro-4′-oxo-3′,4′-dihydro-1′H-spiro[piperidine-4,2′-quinoline]-1-carboxamide] |  | 2450 | > 10000 |  |  |
| Cc1cc(F)cc2c1NC1(CCN(C(=O)NCc3ccc(F)c(C(N)=O)c3)CC1)CC2=O [Example 142, N-(3-carbamoyl-4-fluorobenzyl)-6′-fluoro-8′-methyl-4′-oxo-3′,4′-dihydro-1′H-spiro[piperidine4,2′-quinoline]-1-carboxamide] |  | 2450 | > 10000 |  |  |
| CCCNC(=O)c1cc(CNC(=O)N2CCC3(CC2)CC(=O)c2cc(F)ccc2N3)ccc1F [Example 143, 6′-fluoro-N-(4-fluoro-3-(propylcarbamoyl)benzyl)-4′-oxo-3′,4′-dihydro-1′H-spiro[piperidine-4,2′-quinoline]-1-carboxamide] |  | 2620 | > 10000 |  |  |
| O=C1CC2(CCN(C(=O)NCc3cccc(-n4cncn4)c3)CC2)Nc2c(F)cc(F)cc21 [Example 144, N-(3-(1H-1,2,4-triazol-1-yl)benzyl)-6′,8′-difluoro-4′-oxo-3′,4′-dihydro-1′H-spiro[piperidine-4,2′-quinoline]-1-carboxamide] |  | 3050 | > 10000 |  |  |
| Cn1cc(CNC(=O)N2CCC3(CC2)CC(=O)c2cc(F)ccc2N3)cn1 [Example 145, 6′-fluoro-N-((1-methyl-1H-pyrazol-4-yl)methyl)-4′-oxo-3′,4′-dihydro-1′H-spiro[piperidine-4,2′-quinoline]-1-carboxamide] |  | 3500 | 6060 |  |  |
| O=C1CC2(CCN(C(=O)NCc3ccc(F)c(CNCCO)c3)CC2)Nc2ccc(F)cc21 [Example 146, 6′-fluoro-N-(4-fluoro-3-(((2-hydroxyethyl)amino)methyl)benzyl)-4′-oxo-3′,4′-dihydro-1′H-spiro[piperidine-4,2′-quinoline]-1-carboxamide] |  | 3650 | 2790 |  |  |
| NS(=O)(=O)Cc1cc(CNC(=O)N2CCC3(CC2)CC(=O)c2cc(F)ccc2N3)ccc1F [Example 147, 6′-fluoro-N-(4-fluoro-3-(sulfamoylmethyl)benzyl)-4′-oxo-3′,4′-dihydro-1′H-spiro[piperidine-4,2′-quinoline]-1-carboxamide] |  | 3960 | > 10000 |  |  |
| CN1c2ccc(F)cc2C(=O)CC12CCN(C(=O)NCc1ccc(F)c([C@@H](N)C(F)(F)F)c1)CC2 [Example 149, (R)—N-(3-(1-amino-2,2,2-trifluoroethyl)-4-fluorobenzyl)-6′-fluoro-1′-methyl-4′-oxo-3′,4′-dihydro-1′H-spiro[piperidine-4,2′-quinoline]-1-carboxamide] |  | 5430 | > 10000 |  |  |
| O=C1CC2(CCN(C(=O)NCc3ccc(OC(F)F)cc3)CC2)Nc2c(F)cc(F)cc21 [Example 150, N-(4-(difluoromethoxy)benzyl)-6′,8′-difluoro-4′-oxo-3′,4′-dihydro-1′H-spiro[piperidine-4,2′-quinoline]-1-carboxamide] |  | 6270 | 2620 |  |  |
